Reference: patent US10947252B2, “Inhibitors of KEAP1-Nrf2 protein-protein interaction” (Janssen Pharmaceutica NV, priority 2018, dated 2021)

Tested on: Glo-Response ARE-luc2P HEK293 cell line
Assay: ARE luciferase reporter cell-based assay;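 also: luciferase signal tracks Nrf2 activation of the ARE once compounds disrupt KEAP1-Nrf2 binding, read with One-Glo reagent, DMSO serving as low control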
Conditions: 24 hours, average of results obtained

Row | Structure (SMILES) | EC50 [µM]
1 | Cc1cnc2c(c1)S(=O)(=O)N(Cc1cc([C@@H](c3ccn4c(C(F)(F)F)nnc4c3C)C(C)(C)C(=O)O)ccc1C)CC1(CCOCC1)O2 (single isomer, unassigned) [Example 407, (*S)-2,2-dimethyl-3-(4-methyl-3-((8′-methyl-1′,1′-dioxido-2,3,5,6-tetrahydrospiro[pyran-4,4′-pyrido[2,3-b][1,4,5]oxathiazepin]-2′(3′H)-yl)methyl)phenyl)-3-(8-methyl-3-(trifluoromethyl)-[1,2,4]triazolo[4,3-a]pyridin-7-yl)propanoic Acid] | 0.00147

Same assay, conditions: Homo sapiens, HEK293, 24 h, average of results obtained

Row | Structure (SMILES) | EC50 [µM]
2 | Cc1cc2cc([C@H](c3ccc(C)c(CN4CC5(CC5)Oc5nc(OCCN6CCCCC6)c(C)cc5S4(=O)=O)c3)C(C)(C)C(=O)O)n(C)c2nn1 (single isomer, unassigned) [Example 351, (*R)-3-(3,7-Dimethyl-7H-pyrrolo[2,3-c]pyridazine-6-yl)-2,2-dimethyl-3-(4-methyl-3-((8′-methyl-1′,1′-dioxido-7′-(2-(piperidine-1-yl)-ethoxy)spiro[cyclopropane-1,4′-pyrido[2,3-b][1,4,5]oxathiazepin]-2′,(3′H)-yl)methyl)phenyl)propanoic Acid] | 0.836
3 | Cc1cc2cc([C@@H](c3ccc(C)c(CN4CC5(CC5)Oc5nc(OCCN6CCCC6)c(C)cc5S4(=O)=O)c3)C(C)(C)C(=O)O)n(C)c2nn1 (single isomer, unassigned) [Example 352, (*S)-3-(3,7-Dimethyl-7H-pyrrolo[2,3-c]pyridazine-6-yl)-2,2-dimethyl-3-(4-methyl-3-((8′-methyl-1′,1′-dioxido-7′-(2-(pyrrolidin-1-yl)-ethoxy)spiro[cyclopropane-1,4′-pyrido[2,3-b][1,4,5]oxathiazepin]-2′,(3′H)-yl)methyl)phenyl)propanoic Acid] | 0.0437
4 | Cc1cc2cc([C@H](c3ccc(C)c(CN4CC5(CC5)Oc5nc(OCCN6CCCC6)c(C)cc5S4(=O)=O)c3)C(C)(C)C(=O)O)n(C)c2nn1 (single isomer, unassigned) [Example 353, (*R)-3-(3,7-Dimethyl-7H-pyrrolo[2,3-c]pyridazine-6-yl)-2,2-dimethyl-3-(4-methyl-3-((8′-methyl-1′,1′-dioxido-7′-(2-(pyrrolidin-1-yl)-ethoxy)spiro[cyclopropane-1,4′-pyrido[2,3-b][1,4,5]oxathiazepin]-2′-(3′H)-yl)methyl)phenyl)propanoic Acid] | 1.41
5 | Cc1ccc([C@H](CC(=O)O)c2ccn3c(C(F)(F)F)nnc3c2C)cc1CN1CC2(CCOCC2)Oc2ncc(F)cc2S1(=O)=O (single isomer, unassigned) [Example 414, (*S)-3-(3-((8′-fluoro-1′,1′-dioxido-2,3,5,6-tetrahydrospiro[pyran-4,4′-pyrido[2,3-b][1,4,5]oxathiazepin]-2′(3′H)-yl)methyl)-4-methylphenyl)-3-(8-methyl-3-(trifluoromethyl)-[1,2,4]triazolo[4,3-a]pyridin-7-yl)propanoic Acid] | 0.011
6 | Cc1ccc([C@H](CC(=O)O)c2ccn3c(C(F)(F)F)nnc3c2C)cc1CN1CC2(CCOCC2)Oc2ccc(F)cc2S1(=O)=O (single isomer, unassigned) [Example 415, (*S)-3-(3-((8-fluoro-1,1-dioxido-2′,3′,5′,6′-tetrahydrospiro[benzo[b][1,4,5]oxathiazepine-4,4′-pyran]-2(3H)-yl)methyl)-4-methylphenyl)-3-(8-methyl-3-(trifluoromethyl)-[1,2,4]triazolo[4,3-a]pyridin-7-yl)propanoic Acid] | 0.0051
7 | Cc1ccc([C@@H](c2ccn3c(C(F)(F)F)nnc3c2C)C(C)C(=O)O)cc1CN1CC2(CCOCC2)Oc2ccc(F)cc2S1(=O)=O (single isomer, unassigned) [Example 416, (3S*)-3-(3-((8-fluoro-1,1-dioxido-2′,3′,5′,6′-tetrahydrospiro[benzo[b][1,4,5]oxathiazepine-4,4′-pyran]-2(3H)-yl)methyl)-4-methylphenyl)-2-methyl-3-(8-methyl-3-(trifluoromethyl)-[1,2,4]triazolo[4,3-a]pyridin-7-yl)propanoic Acid] | 0.00253
8 | CCn1nnc2c(C)c([C@H](c3ccc(C)c(CN4CC5(CCOCC5)Oc5ncc(C)cc5S4(=O)=O)c3)C(C)(C)C(=O)O)ccc21 (single isomer, unassigned) [Example 421, (*R)-3-(1-ethyl-4-methyl-1H-benzo[d][1,2,3]triazol-5-yl)-2,2-dimethyl-3-(4-methyl-3-((8′-methyl-1′,1′-dioxido-2,3,5,6-tetrahydrospiro[pyran-4,4′-pyrido[2,3-b][1,4,5]oxathiazepin]-2′(3′H)-yl)methyl)phenyl)propanoic Acid] | 0.00024
9 | Cc1ccc([C@@H](c2cc(OC(F)F)c3c(c2)nnn3C)C(C)(C)C(=O)O)cc1CN1CC2(CCOCC2)Oc2ncccc2S1(=O)=O (single isomer, unassigned) [Example 426] | 0.0009
10 | Cc1ccc([C@H](c2cc(OC(F)F)c3c(c2)nnn3C)C(C)(C)C(=O)O)cc1CN1CC2(CCOCC2)Oc2ncccc2S1(=O)=O (single isomer, unassigned) [Example 427, (R*)-3-(7-(difluoromethoxy)-1-methyl-1H-benzo[d][1,2,3]triazol-5-yl)-3-(3-((1′,1′-dioxido-2,3,5,6-tetrahydrospiro[pyran-4,4′-pyrido[2,3-b][1,4,5]oxathiazepin]-2′(3′H)-yl)methyl)-4-methylphenyl)-2,2-dimethylpropanoic Acid] | 0.293
11 | Cc1ccc([C@H](c2ccc3c(nnn3CC3CC3)c2C)C(C)(C)C(=O)O)cc1CN1CC2(CCOCC2)Oc2ncccc2S1(=O)=O (single isomer, unassigned) [Example 429, (R*)-3-(1-(cyclopropylmethyl)-4-methyl-1H-benzo[d][1,2,3]triazol-5-yl)-3-(3-((1′,1′-dioxido-2,3,5,6-tetrahydrospiro[pyran-4,4′-pyrido[2,3-b][1,4,5]oxathiazepin]-2′(3′H)-yl)methyl)-4-methylphenyl)-2,2-dimethylpropanoic Acid] | 17.8
12 | Cc1ccc([C@H](CC(=O)O)c2ccn3c(C(F)F)nnc3c2C)cc1CN1CC2(CCOCC2)Oc2ccc(F)cc2S1(=O)=O (single isomer, unassigned) [Example 524, (*S)-3-(3-(Difluoromethyl)-8-methyl-[1,2,4]triazolo[4,3-a]pyridin-7-yl)-3-(3-((8-fluoro-1,1-dioxido-2′,3′,5′,6′-tetrahydrospiro[benzo[b][1,4,5]oxathiazepine-4,4′-pyran]-2(3H)-yl)methyl)-4-methylphenyl)propanoic Acid] | 0.0197
13 | Cc1ccc([C@H](CC(=O)O)c2ccn3c(C(F)F)nnc3c2C)cc1CN1CC2(CC2)Oc2ncc(Cl)cc2S1(=O)=O (single isomer, unassigned) [Example 530, (*S)-3-(3-((8′-Chloro-1′,1′-dioxidospiro[cyclopropane-1,4′-pyrido[2,3-b][1,4,5]oxathiazepin]-2′(3′H)-yl)methyl)-4-methylphenyl)-3-(3-(difluoromethyl)-8-methyl-[1,2,4]triazolo[4,3-a]pyridin-7-yl)propanoic Acid] | 0.0103
